# Patent US8173428B2, “LNA oligonucleotides and the treatment of cancer” (Santaris Pharma A/S, priority 2004, dated 2012)
# Oligonucleotides are written 5' to 3', each unit as a sugar letter and its base; * is a phosphorothioate linkage, no mark a phosphodiester; rarer units and linkages stand in square brackets, end groups in braces. Plain capitals give the bases only. l = locked nucleic acid (LNA); [5mC] = 5-methylcytosine; d = 2'-deoxy (DNA)
# Assays:
# human Survivin RNA = experiment: Survivin mRNA knockdown in transfected 15PC3 cells by real-time PCR; format: cell-based
# Procedure: Cell culturing and transfections: 15PC3 cells were seeded in 12-well plates and grown for two days at 37° C. (5% CO2) in DMEM supplemented with 10% FBS, Glutamax I and Gentamicin. When the cells were 60-70% confluent, they were transfected in duplicates with different concentrations of oligonucleotides (0.2-25 nM) using Lipofectamine 2000 (10 μg/ml). Transfections were carried out essentially as described by Dean et al. (1994, JBC 269:16416-16424). In short, cells were incubated for 10 min. with Lipofectamine in OptiMEM followed by addition of oligonucleotide to a total volume of 0.5 ml transfection mix per well. […] Cells were then harvested for protein and RNA analysis.
# Total RNA was isolated using RNeasy mini kit (Qiagen). Cells were washed with PBS, and Cell Lysis Buffer (RTL, Qiagen) supplemented with 1% mercaptoethanol was added directly to the wells. After a few minutes, the samples were processed according to manufacturer's instructions.
# First strand synthesis was performed using OmniScript Reverse Transcriptase kit according to the manufacturer's instructions (Qiagen). For each sample, 0.5 μg total RNA was adjusted to 12 μl and mixed with 0.2 μl poly (dT)12-18 (0.5 μg/μl) (Life Technologies), 2 μl dNTP mix (5 mM each), 2 μl 10× RT buffer, 0.5 μl RNAguard™ RNase Inhibitor (33 units/ml, Amersham) and 1 μl OmniScript Reverse Transcriptase followed by incubation at 37° C. for 60 min. and heat inactivation at 93° C. for 5 min.
# To determine the relative Survivin mRNA level in oligonucleotide treated and untreated cells, the generated cDNA was used in quantitative PCR analysis using an iCycler from BioRad. The cDNA was diluted 5-fold and 8 μl was mixed with 52 μl Taqman probe master mix containing 30 μl Platinum Quantitative PCR SuperMix UDG 2×PCR master mix (Invitrogen), 3 μl 20× Taqman probe and primer mix (forward primer: 5′[…] (SEQ ID NO:29), final 0.9 μM. Reverse primer: 5′[…] (SEQ ID NO:30), final 0.6 μM and taqman probe: FAM-[…]-TAMRA (SEQ ID NO:31), final 0.1 μM) and 19 μl H2O. The 60 μl were dispersed in two wells (96 well plates) with […] in each well. For human Bcl-2 the PCR primers were: […]
# The primers and probe were obtained from […] (France). To normalize any variance in sample preparation, the endogenous GAPDH mRNA was quantified using a pre-developed Taqman assay reagent from Applied Biosystems (4310884E) according to manufacturer's Instructions. Two-fold dilutions of cDNA, synthesised from untreated 15PC3 cells (expressing both Survivin and GAPDH), was used to prepare standard curves for the assays. The PCR program was as follows: 50° C. for 2 min., 95° C. for 10 min. followed by 40 cycles of 95° C. 15 sec., 60° C. 1 min. Relative quantities of Survivin mRNA were determined from the calculated threshold cycle using the iCycler IQ Real Time Detection System software.
# In accordance with the present invention, a series of oligonucleotides were designed to target different regions of the human Survivin RNA, using published sequences (GenBank accession number NM_001168).
# LNA oligonucleotides were evaluated for their potential to knockdown Survivin mRNA in 15PC3 cells. The data are presented as percentage down-regulation relative to mock transfected cells. Transcript steady state was monitored by Real-time PCR and normalised to the GAPDH transcript steady state, see Table 3. Note that all LNA C are 5-methyl-Cytosine.
# HeLa cells = experiment: Annexin V-FITC/PI flow cytometry analysis; format: cell-based, human; conditions: 5 nM or 25 nM
# Procedure: Culturing of cells: 15PC3 was cultured in DMEM (Sigma) containing 10% fetal bovine serum, Glutamax I and gentamicin at 37° C., 95% humidity and 5% CO2. The cervical carcinoma cell line HeLa were cultured in MEM (Sigma) containing 10% fetal bovine serum, Glutamax I and gentamicin at 37° C., 95% humidity and 5% CO2. When reaching 60-70% confluency, the cells were transfected using Lipofectamine 2000 (5 μg/ml).
# 0.4×10^6 HeLa cells were seeded in T25 flasks one day prior to transfection. On the day of transfection, the cells were washed once in 37° C. OptiMEM followed by addition of 2.8 ml OptiMEM containing 5 μg/ml Lipofectamine-2000 (In vitrogen). Cells were incubated for 7 min before adding 700 μl oligonucleotides diluted in OptiMEM to a final concentration of 5 nM or 25 nM, Mock transfected cells served as control. After 4 hours of treatment cells were washed in OptiMEM and 3 ml culture medium was added. Following oligonucleotide treatment cells were allowed to recover for 48 hours before they were harvested by scraping and washed twice in PBS. 0.2×10^6 cells were incubated with 5 μl Annexin V-FITC and 10 μl propidium iodide (PI-10 mg/ml) and incubated for 15 min at room temperature in the dark. […] Moreover, TRAIL (Apo2L) induced HeLA cells (0.5 μg/ml) were used as positive control. (See FIG. 4)
# [1] = Stability in mouse plasma; format: in vitro ADME; conditions: 20 μM, 37° C., up to 96 hours
# Procedure: Stability of 20 μM SEQ ID NO. 2 and SEQ ID NO. 24 in human and mouse plasma (Li-Heparine (Taconic, M&B)) at 37° C. at different time aliquots: 0, 1, 2, 4, 24, 48 and 96 hours. A commercially available ladder was also included (10 and 20 mer are visible on the PAGE). (see FIG. 1)
# [2] = Survivin mRNA down-regulation relative to mock, normalised to GAPDH, standard deviation in brackets, at least three experiments
substance,measurement,setting,value
5′-^MeCsTs^MeCsAsastscscsastsgsgs^MeCsAsGsc-3′ (l[5mC]*lT*l[5mC]*lA*dA*dT*dC*dC*dA*dT*dG*dG*l[5mC]*lA*lG*dC) [SEQ ID NO. 2],Survivin mRNA expression,"human Survivin RNA; 2 nM combined with 10 nM Taxol, 24 hours and 48 hours, relative to mock (0.1% DMSO)",down-regulated
same,Survivin mRNA expression,"human Survivin RNA; 2 nM, 24 hours and 48 hours, relative to mock (0.1% DMSO)",down-regulated
same,Survivin mRNA expression,"human Survivin RNA; 10 nM, 24 hours, single agent or combined with control oligonucleotides",have effects on Survivin and Bcl-2 expression
same,IC50,human Survivin RNA; [2],2.9 nM
same,IC75 [nM],human Survivin RNA; [2],4.8 (0.3) nM
same,Induction of early and late apoptosis (Annexin V-FITC/PI staining),HeLa cells,dose dependent induction of early and late apoptosis
same,Stability in mouse plasma (degradation products),[1],No degradation products
